Measurements as given in BigSolDB 2.1.

c1ccc2c(c1)sc1ccccc12
Settings	solubility (mole fraction)
in 2-(2-butoxyethoxy)ethanol, 282.75 K	0.063
in 2-(2-butoxyethoxy)ethanol, 285.85 K	0.0695
in 2-(2-butoxyethoxy)ethanol, 291.65 K	0.0873
in 2-(2-butoxyethoxy)ethanol, 298.95 K	0.105
in 2-(2-butoxyethoxy)ethanol, 304.35 K	0.123
in 2-(2-butoxyethoxy)ethanol, 309.85 K	0.144
in 2-(2-butoxyethoxy)ethanol, 316.05 K	0.167
in 2-(2-butoxyethoxy)ethanol, 320.95 K	0.192
in 2-(2-butoxyethoxy)ethanol, 324.35 K	0.217
in 2-(2-butoxyethoxy)ethanol, 328.95 K	0.245
in 2-(2-butoxyethoxy)ethanol, 333.15 K	0.28
in DMF, 289.45 K	0.113
in DMF, 294.25 K	0.131
in DMF, 298.65 K	0.147
in DMF, 302.65 K	0.165
in DMF, 306.55 K	0.184
in DMF, 310.15 K	0.206
in DMF, 314.35 K	0.231
in DMF, 318.35 K	0.257
in DMF, 322.35 K	0.285
in DMF, 325.55 K	0.313
in DMF, 329.25 K	0.344
in DMSO, 292.95 K	0.0567
in DMSO, 296.45 K	0.0668
in DMSO, 301.25 K	0.0791
in DMSO, 306.15 K	0.0925
in DMSO, 310.15 K	0.108
in DMSO, 314.85 K	0.127
in DMSO, 318.05 K	0.15
in DMSO, 322.95 K	0.177
in DMSO, 325.45 K	0.201
in DMSO, 330.15 K	0.234
in DMSO, 333.25 K	0.264
in acetone, 300.15 K	0.0769
in acetone, 301.15 K	0.0792
in acetone, 303.15 K	0.0884
in acetone, 308.15 K	0.107
in acetone, 311.25 K	0.12
in acetone, 314.65 K	0.136
in acetone, 317.95 K	0.156
in acetone, 321.65 K	0.179
in acetone, 326.25 K	0.217
in acetone, 330.95 K	0.261
in acetone, 336.25 K	0.319
in acetone, 341.15 K	0.372
in acetonitrile, 289.35 K	0.0103
in acetonitrile, 290.45 K	0.0107
in acetonitrile, 293.25 K	0.0121
in acetonitrile, 297.35 K	0.0143
in acetonitrile, 302.15 K	0.0175
in acetonitrile, 304.55 K	0.0199
in acetonitrile, 309.25 K	0.0244
in decalin, 294.15 K	0.0408
in decalin, 296.15 K	0.042
in decalin, 298.15 K	0.0445
in decalin, 302.15 K	0.049
in decalin, 304.15 K	0.0516
in decalin, 308.15 K	0.0571
in decalin, 317.15 K	0.0706
in decalin, 325.15 K	0.0891
in decalin, 331.15 K	0.101
in decalin, 337.15 K	0.107
in diethylene glycol, 287.85 K	0.00027
in diethylene glycol, 299.95 K	0.00062
in diethylene glycol, 309.95 K	0.00093
in diethylene glycol, 314.15 K	0.00119
in diethylene glycol, 317.65 K	0.00163
in diethylene glycol, 320.95 K	0.0023
in diethylene glycol, 324.95 K	0.00328
in diethylene glycol, 326.85 K	0.00443
in diethylene glycol, 328.15 K	0.00619
in diethylene glycol, 330.15 K	0.00951
in diethylene glycol, 332.35 K	0.0143
in diethylene glycol, 334.15 K	0.0203
in ethanol, 294.55 K	0.0062
in ethanol, 300.25 K	0.0074
in ethanol, 303.85 K	0.0082
in ethanol, 306.45 K	0.0092
in ethanol, 310.25 K	0.0106
in ethanol, 313.95 K	0.0121
in ethanol, 318.95 K	0.0141
in ethanol, 322.55 K	0.0164
in ethanol, 327.35 K	0.0197
in ethanol, 331.15 K	0.0239
in n-octane, 292.05 K	0.0232
in n-octane, 294.15 K	0.0244
in n-octane, 297.15 K	0.0277
in n-octane, 300.05 K	0.0317
in n-octane, 304.15 K	0.0373
in n-octane, 308.25 K	0.0438
in n-octane, 314.15 K	0.0521
in n-octane, 318.15 K	0.062
in n-octane, 325.15 K	0.0767
in n-octane, 337.15 K	0.0995
in n-propanol, 288.05 K	0.0065
in n-propanol, 295.95 K	0.0083
in n-propanol, 300.15 K	0.0099
in n-propanol, 303.85 K	0.0118
in n-propanol, 307.85 K	0.0143
in n-propanol, 314.65 K	0.0183
in n-propanol, 320.65 K	0.0232
in n-propanol, 324.05 K	0.0292
in n-propanol, 328.95 K	0.0363
in n-propanol, 332.25 K	0.043
in n-propanol, 336.05 K	0.0486
in sulfolane, 297.65 K	0.0541
in sulfolane, 299.45 K	0.0563
in sulfolane, 301.75 K	0.0609
in sulfolane, 303.45 K	0.0712
in sulfolane, 309.15 K	0.0923
in sulfolane, 313.35 K	0.109
in sulfolane, 317.05 K	0.125
in sulfolane, 321.05 K	0.144
in sulfolane, 324.85 K	0.163
in sulfolane, 327.75 K	0.185
in sulfolane, 331.75 K	0.214
in sulfolane, 334.75 K	0.242
in sulfolane, 338.25 K	0.271
in sulfolane, 340.45 K	0.294
